Test results: patent publication US20250082624A1, “METHODS OF TREATING COGNITIVE IMPAIRMENT” (NeuroTherapia, Inc., priority 2023, published 2025)
Several values for one entry are separate records, joined by “and”; a condition that tells them apart may be missing. Equal values may be shown once. Entries after “also recorded” stand apart in the source; their conditions may differ.

How the values were obtained:
healthy volunteers [1] = conditions: cited from earlier work
AD cohort [2] = assay: Cognitive testing ADAS-COG in AD cohort; type: in vivo, human; conditions: 90 mg QD 7 days
From the text: (§1) Methods: All study procedures were approved by the IRB, and informed consent was obtained. Three cohorts of volunteers 45-80 years of age with well-controlled comorbidities (NOAD) and one cohort of AD patients diagnosed with cognitive impairment consistent with prodromal AD per International Working Group criteria or mild AD per National Institute on Aging—Alzheimer's Association criteria (n=6 active, 2 placebo per cohort) were enrolled. Participants were admitted to the study site for the duration of the dosing and returned 7-12 days after the last dose for a safety visit. Participants received NTRX-07 (10, 30, or 90 mg) or a placebo in a double-blinded randomization orally once daily for seven days. Subjects were assessed for changes in vital signs, including maneuvers to induce lightheadedness, electrocardiograms, 24-hour electroencephalograms (EEG), and safety laboratory studies. The second cohort returned and received a single repeat dose after a standard high-fat meal. The AD cohort also underwent cognitive testing and had blood samples for biomarkers drawn. Subjects had PK sampling done after the first and final dose of the study drug. An independent safety review committee conducted a blinded safety review of adverse events and plasma levels between each cohort.
(§2) Assessments: Subjects were assessed for changes in vital signs, orthostatic blood pressure, Romberg test, nystagmus, timed get up and go, electrocardiograms, electroencephalograms (EEG), and laboratory studies. Subjective questionnaires of drug effects (ARCI-M) were administered. Cohort B returned and received a single repeat dose after a standard high-fat meal. The AD cohort also underwent cognitive testing (MMSE, ADAS-COG, MOCA) and had blood samples for biomarkers drawn.
(§3) Exploratory endpoints include cognitive testing and potential plasma biomarkers of inflammation. The small group size (6 on treatment, 2 placebo) precludes statistical analysis, but the goals were to gain insights for future study design. Exploratory endpoints include: • MMSE, MOCA & ADAS-COG • IL-12p70, IL-10, IL-4, IL-5, INFg, IL-6, IL-8, IL-22, TNFa, IL-10, hCRP, Chitinase-3, TREM-2, IL-2, Neurogranin, Total Tau, AB42, AB40, NF-LIGHT, pTau-181

healthy volunteers [3] = assay: Phase 1a single ascending dose study; type: in vivo, human
[4] = system: volunteers and AD patients; assay: 24-hour EEG safety assessment and post-hoc qEEG analysis; type: in vivo, human; conditions: AD patients, 90 mg QD 7 days, post hoc exploratory
Experimental: Protocol-specified EEG assessments were for safety assessment of any potential epileptogenic changes. A post-hoc analysis of quantitative EEG (qEEG) changes was also performed.
An informational letter was filed with the FDA to inform them of this study. The study was designed as follows: • 3 healthy cohorts (cohorts A-C) followed by AD cohort (cohort D) treated at MTD • 6 treated, 2 placebos in each cohort • Doses: 10, 30, 90 mg/treatment—latter doses can be adjusted based on PK assessment • In unit, 7 days of treatment • Monitor vertigo with various tests: (1) timed get-up and go, (2) Nystagmus test, (3) Romberg test, and (4) changes in orthostatic blood pressure (Day 1, 3 and 8) • Use 24 hr EEG monitoring for CNS safety assessment • Assess plasma biomarkers of inflammation and AD pre- and post-treatment in AD cohort • Assess changes on cognition post-treatment using MMSE and ADAS-cog • Fed/fasted study to determine food effects on PK as a subset of the Phase 1b
No subjects had clinically meaningful abnormal values or changes from baseline, nor differences between placebo and active drug, in EEG readings in any of the 4 cohorts.

[5] = system: APP/PS1 mouse model of AD; conditions: cited from earlier work
AD cohort [6] = assay: Cognitive testing MOCA / MMSE in AD cohort; type: in vivo, human; design: MOCA / MOCA Mean (StdDev): scale not given here; conditions: 90 mg QD 7 days
From the text: as §1, §2, §3

[7] = Day −2 (baseline), individual subjects
[8] = EOS Visit (Day 14-19), individual subjects

## CC1(Cc2ccccc2)COc2cc(C(=O)N3CCCCC3)ccc21 (stereo not drawn) [NTRX-07, 3-benzyl-3-methyl-2,3-dihydrobenzofuran-6-carboxylic acid-piperidine amide]
Healthy volunteers [1]; single doses of 3.5 and 4 mg/kg
  Adverse effect at high doses: transient lightheadedness
Healthy volunteers [1]; single doses up to 2 mg/kg, healthy volunteers
  Major adverse effects: no major adverse effects
AD cohort [2]; Day 8
  ADAS-COG Mean (StdDev): 12.72 (1.56)
AD cohort [2]; Day 8, individual subjects
  ADAS-COG: 11.00 and 15.33 and 11.67 and 12.67 and 12.00 and 13.67
AD cohort [2]; Day −2 (baseline)
  ADAS-COG Mean (StdDev): 17.50 (2.83)
AD cohort [2]; [7]
  ADAS-COG: 17.00 and 18.33 and 13.33 and 22.00 and 18.00 and 16.33
AD cohort [2]; EOS Day 14-19
  ADAS-COG Mean (StdDev): 13.17 (3.46)
AD cohort [2]; [8]
  ADAS-COG: 9.33 and 19.33 and 11.00 and 12.00 and 13.00 and 14.33
AD cohort [2]; immediately post-treatment
  ADAS-COG trend: Trend toward improvement
Healthy volunteers [3]; Phase 1a single ascending dose
  No adverse events level: 2 mg/kg
Healthy volunteers [3]; single ascending dose
  Adverse events in Phase 1a: Only minor, non-dose limiting adverse events
[4]
  qEEG mean frequency (AD effect): treatment partially reversed this AD effect; also recorded: Trend towards improvement; also recorded: partial reversion of AD effect; also recorded: increasing mean frequency
[5]; AD models, FIG. 4
  Clearance of Aβ: improved clearance of A-beta proteins; also recorded: increases clearance of Aβ
[5]; APP/PS1 (Tg(APPswe,PSEN1dE9)85Dbo) mouse, FIG. 5
  Aβ plaque clearance: promotes Aβ plaque clearance
[5]; APP/PS1 mouse model of AD, FIG. 3
  CB2 increase / Iba1 colocalization in microglia (microglial activation): returned towards baseline
[5]; preclinical AD models
  Inflammatory changes in the brain: decreased inflammatory changes in the brain
  Long-term potentiation: improved long-term potentiation
AD cohort [6]
  Changes in cognitive scores (MMSE, MOCA): No significant changes in cognitive scores; also recorded: No appreciable changes
AD cohort [6]; Day 8
  MOCA Mean (StdDev): 19.7 ± 1.8
AD cohort [6]; Day 8, individual subjects
  MOCA: 22 and 21 and 19 and 20 and 17
AD cohort [6]; Day −2 (baseline)
  MOCA Mean (StdDev): 20.5 ± 2.6
AD cohort [6]; [7]
  MOCA: 22 and 21 and 24 and 18 and 17
AD cohort [6]; EOS Day 14-19
  MOCA Mean (StdDev): 20.7 ± 3.5
AD cohort [6]; [8]
  MOCA: 25 and 15 and 20 and 23 and 22 and 19
